The nature of the series: Solubility of PPPBP in methanol (amount of methanol required to bring PPPBP into solution). Format: physicochemical. The source says: Studies were undertaken to determine the amount of methanol required to bring PPPBP into solution at room temperature and at elevated temperature.

Regarding `O=C1c2ccccc2C(c2ccc(O)cc2)(c2ccc(O)cc2)N1c1ccccc1` [Pure PPPBP, 2-phenyl-3,3-bis(4-hydroxyphenyl)phthalimidine], the Volumes of methanol (at reflux temp) is given as 17 volumes and the Volumes of methanol (at room temp) turned out to be 20 volumes.

(Values after US10005884B2, “Methods for purifying 2-aryl-3,3-bis(hydroxyaryl)phthalimidines” (SABIC GLOBAL TECHNOLOGIES B.V., priority 2014, dated 2018).)
